One molecule from paper PMC9515143, “Phosphorylation of Jhd2 by the Ras-cAMP-PKA(Tpk2) pathway regulates histone modifications and autophagy” (Nature Communications, 2022) can be followed below.

For this assay, the system named is Bcy1. As to the kind of experiment: Dissociation of Tpk1, Tpk2, Tpk3 from Bcy1 after glucose, Co-IP. The settings on record: 2% glucose, 0-30 min. In kind it is cell-based, budding yeast (Saccharomyces cerevisiae). The protocol: Yeast whole cell extract was prepared by vortexing with glass beads and then digested with Micrococcal Nuclease (MNase). Pre-cleared cell lysate was incubated with anti-FLAG M2 agarose for 1 hr at 4 °C. The beads were washed three times with IP washing buffer (40 mM HEPES-KOH, pH7.5, 0.1% NP-40, 10% glycerol, 1 mM PMSF, 350 mM NaCl, 2 μg/ml leupeptin, 1 μg/ml pepstatin A) and boiled in SDS-sample buffer for 5 min. Supernatants from the boiled beads were subjected to SDS-PAGE and Western blots.
Supplementary Fi g . 11 Analysis of PKA subunits subcellular localization, expression and Bcy1 dissociation kinetics. a Subcellul ar localiz ation of Tpk1, Tpk2 and Tp k3. Cells (Tpk1-FLAG, Tpk2- FLAG, Tpk3- F LA G) wer e grown in YP+2% glucos e medium. Th e localization of Tpk1, Tpk2 and Tp k3 was detect ed with ant i-F LAG antibod y. […] Bc y1 was immunoprecipitated from cells (Tpk1- FLAG/Bcy1- M yc, Tpk2- FLAG/Bcy1-M yc, Tpk3- FLAG/Bcy1- M yc) with anti-M yc antibody.
For Supplem ent ar y Fi g. 11 b, dat a r ep res ent m ean s ± SEM; n=3 independent ex perim ents. Tw o -sid ed t-t ests were us ed for statistical […]
(1 picture or pasted object on this page, not shown here)

SMILES strings stand for the structures.

On to `OC[C@H]1OC(O)[C@H](O)[C@@H](O)[C@@H]1O` (stereo partly shown) [glucose], for which the “dissociation of Tpk2 from Bcy1 compared with Tpk1 and Tpk3” value was “Tpk2 dissociated with Bcy1 with a faster kinetics than Tpk1 and Tpk3”.
